Source: patent US20080009532A1, “Antimicrobially Finished Solid Preparations” (priority 2005, published 2008)

Tested on: mixture of bacterial species: Pseudomonas aeruginosa, Pseudomonas fluorescens, Pseudomonas oleovorans, Pseudomonas rubescens, Pseudomonas stutzeri, Alcaligenes …
Experiment: Microbiological stress test (preservation stress test) in calcium carbonate slurry
Assay type: cell-based
Settings: calcium carbonate slurry (solids 70-75%), 3 days 60° C. pre-stress, weekly contamination
Description: Microbiological Stress Test The microbiological stress test examines the susceptibility of water-based systems to microbial attack and the efficacy of preservatives. To this end, defined concentrations of the preservatives are incorporated into the water-based systems. To simulate reality-like conditions, depending on the medium to be examined, the sample may be stored at elevated temperatures (for example for 7 days at 40° C., for 3 days at 60° C. or the like) prior to carrying out the actual preservation test, in order to evaluate the preservatives to be tested under conditions which are as realistic as possible. After the preliminary work has been concluded, there is, at weekly intervals, a contamination with microorganisms of a defined type over a test period of at most 6 weeks. 2-3 and 7 days after each contamination it is established by germ number determination, whether there has been a complete kill or at least an inhibition of proliferation of the microorganisms introduced, compared to the non-preserved control samples. On account of the microorganism populations known to predominate in mineral suspensions and dispersions, for the experiment, a mixture of the following bacterial species was used for the test: Pseudomonas aeruginosa Pseudomonas fluorescens Pseudomonas oleovorans Pseudomonas rubescens Pseudomonas stutzeri Alcaligenes faecalis Citrobacter freundii Corynebacterium sp. Very good efficacy is achieved when the preserved samples effect a kill of the microorganisms introduced even after 6 contamination cycles. […] Using a calcium carbonate slurry (solids content 70-75%), a preservation stress test was carried out in accordance with the above scheme. After incorporation of the respective biocide products at the stated concentrations, the samples were exposed to thermal stress at 60° C. for 3 days in order to identify unstable active compound components in the biocide products even at this phase of the experiment by subsequent loss of activity.

O=c1[nH]sc2ccccc12 [benzisothiazolinone, 1,2-benzisothiazolin-3-one]
Preservation state Week 1 (100 ppm): ok
Preservation state Week 2 (100 ppm): spoilt
Preservation state Week 3 (100 ppm): spoilt
Preservation state Week 4 (100 ppm): spoilt
Preservation state Week 5 (100 ppm): spoilt
Preservation state Week 6 (100 ppm): spoilt
Preservation state Week 1 (150 ppm): ok
Preservation state Week 2 (150 ppm): ok
Preservation state Week 3 (150 ppm): spoilt
Preservation state Week 4 (150 ppm): spoilt
Preservation state Week 5 (150 ppm): spoilt
Preservation state Week 6 (150 ppm): spoilt
Preservation state Week 1 (200 ppm): ok
Preservation state Week 2 (200 ppm): ok
Preservation state Week 3 (200 ppm): ok
Preservation state Week 4 (200 ppm): spoilt
Preservation state Week 5 (200 ppm): spoilt
Preservation state Week 6 (200 ppm): spoilt
